According to PubChem BioAssay AID1918995 (Molecular Pharmacology Branch, DTP, NCI, 2023):

System: 324938-238-R-J1-PDC complex spheroid growth, % test/control
Assay: Anticancer human tumor 324938-238-R-J1-PDC patient-derived bladder carcinoma cell line growth inhibition [AhR]
Details: for IC50: curve of first compound; for viability, T/C: stronger effect = lower value
Summary of the method: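 Complex tumor spheroids co-cultured with HUVEC and human MSC stroma; AhR antagonists tested in combination with standard-of-care and investigational agents. Top concentration at or near clinical Cmax (else 10 microM), half-log dilutions; growth expressed as percent test/control.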

[1] = second compound 0.1 µM, first compound 0.0316 µM
[2] = second compound 0.1 µM, first compound 0.1 µM
[3] = second compound 0.1 µM, first compound 0.316 µM
[4] = second compound 0.1 µM, first compound 1 µM
[5] = second compound 0.1 µM, first compound 3.16 µM
[6] = second compound 0.1 µM, first compound 10 µM
[7] = second compound 0.316 µM, first compound 0.0316 µM
[8] = second compound 0.316 µM, first compound 0.1 µM
[9] = second compound 0.316 µM, first compound 0.316 µM
[10] = second compound 0.316 µM, first compound 1 µM
[11] = second compound 0.316 µM, first compound 3.16 µM
[12] = second compound 0.316 µM, first compound 10 µM
[13] = second compound 1 µM, first compound 0.0316 µM
[14] = second compound 1 µM, first compound 0.1 µM
[15] = second compound 1 µM, first compound 0.316 µM
[16] = second compound 1 µM, first compound 1 µM
[17] = second compound 1 µM, first compound 3.16 µM
[18] = second compound 1 µM, first compound 10 µM
[19] = second compound 3.16 µM, first compound 0.0316 µM
[20] = second compound 3.16 µM, first compound 0.1 µM
[21] = second compound 3.16 µM, first compound 0.316 µM
[22] = second compound 3.16 µM, first compound 1 µM
[23] = second compound 3.16 µM, first compound 3.16 µM
[24] = second compound 3.16 µM, first compound 10 µM
[25] = second compound 10 µM, first compound 0.0316 µM
[26] = second compound 10 µM, first compound 0.1 µM
[27] = second compound 10 µM, first compound 0.316 µM
[28] = second compound 10 µM, first compound 1 µM
[29] = second compound 10 µM, first compound 3.16 µM
[30] = second compound 10 µM, first compound 10 µM
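Further: spheroids exposed to agents for seven days before viability read.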

IC50 (second compound 0.1 µM) [nM] | IC50 (second compound 0.316 µM) [nM] | IC50 (second compound 1 µM) [nM] | IC50 (second compound 3.16 µM) [nM] | IC50 (second compound 10 µM) [nM] | SMILES | viability, T/C [1] [%] | viability, T/C [2] [%] | viability, T/C [3] [%] | viability, T/C [4] [%] | viability, T/C [5] [%] | viability, T/C [6] [%] | viability, T/C [7] [%] | viability, T/C [8] [%] | viability, T/C [9] [%] | viability, T/C [10] [%] | viability, T/C [11] [%] | viability, T/C [12] [%] | viability, T/C [13] [%] | viability, T/C [14] [%] | viability, T/C [15] [%] | further results
1360 | 1070 | 1040 | 875 | 929 | NS(=O)(=O)OCC1CC(n2ccc3c(NC4CCc5ccccc54)ncnc32)CC1O (stereo not given) + Cc1ccccc1N=Nc1ccc(NC(=O)c2ccnn2C)c(C)c1 | 85.5 | 103 | 79.7 | 59 | 28.9 | 27.7 | 93.2 | 88.8 | 76.1 | 55.4 | 23.4 | 30.1 | 88 | 83.4 | 82.7 | viability, T/C [16]: 50.9%; viability, T/C [17]: 26.7%; viability, T/C [18]: 35.2%; viability, T/C [19]: 79.8%; viability, T/C [20]: 72.9%; viability, T/C [21]: 73.7%; viability, T/C [22]: 46.7%; viability, T/C [23]: 22.9%; viability, T/C [24]: 32%; viability, T/C [25]: 72.7%; viability, T/C [26]: 81%; viability, T/C [27]: 74.1%; viability, T/C [28]: 48.4%; viability, T/C [29]: 35.5%; viability, T/C [30]: 35.8%
3650 | 3630 | 3030 | 3750 | < 31.6 | O=C(C=Cc1cccc(S(=O)(=O)Nc2ccccc2)c1)NO + Cc1cncc(-c2nc(NCCc3c[nH]c4ccccc34)c3ncn(C(C)C)c3n2)c1 | 121 | 130 | 95.4 | 104 | 53.5 | 1.77 | 101 | 106 | 95.3 | 92.7 | 56.2 | 2.06 | 112 | 122 | 96.5 | viability, T/C [16]: 95.2%; viability, T/C [17]: 46.6%; viability, T/C [18]: 3.32%; viability, T/C [19]: 133%; viability, T/C [20]: 109%; viability, T/C [21]: 125%; viability, T/C [22]: 87.7%; viability, T/C [23]: 60%; viability, T/C [24]: 0.96%; viability, T/C [25]: 9.41%; viability, T/C [26]: 28.3%; viability, T/C [27]: 40%; viability, T/C [28]: 63%; viability, T/C [29]: 61.8%; viability, T/C [30]: 0.41%
336 | 367 | 291 | 181 | < 31.6 | COc1cccc2c1C(=O)c1c(O)c3c(c(O)c1C2=O)CC(O)(C(=O)CO)CC3OC1CC(N)C(O)C(C)O1 (stereo not given) + Cc1cncc(-c2nc(NCCc3c[nH]c4ccccc34)c3ncn(C(C)C)c3n2)c1 | 84.2 | 95.7 | 52.8 | 0.98 | 0.76 | 0.41 | 65.7 | 94.2 | 57.3 | 0.94 | 0.57 | 0.38 | 90.7 | 102 | 46.3 | viability, T/C [16]: 0.36%; viability, T/C [17]: 1.27%; viability, T/C [18]: 0.47%; viability, T/C [19]: 81.8%; viability, T/C [20]: 62.1%; viability, T/C [21]: 38.9%; viability, T/C [22]: 0.31%; viability, T/C [23]: 1.98%; viability, T/C [24]: 0.43%; viability, T/C [25]: 4.55%; viability, T/C [26]: 12.7%; viability, T/C [27]: 1.27%; viability, T/C [28]: 0.29%; viability, T/C [29]: 0.45%; viability, T/C [30]: 0.62%
